Consider 22 compounds from PMC7918538 (Pharmaceuticals, 2021).

Converted amounts (≈) assume the structure as drawn. “And” between values parts separate entries of the source, which are not always exact repeats. Equal values may be shown once. Read-outs that look alike come from different tables or passages of the source. Some results are limits rather than exact numbers.

The target in data set [1] is T1, Recombinant M. tuberculosis MbtI (Mycobacterium tuberculosis, UniProt P9WFX1).
T1 construct: made in house
Particulars: cited from earlier work; for %RA (% residual enzymatic activity at 100 µM): previous furan leads I and II shown in Table 1 for comparison.

Data set [2] concerns eukaryotic cells. The arrangement: method as in PMID 32530281, PMID 30889995, PMID 29940465, PMID 29933627. The conditions noted are these: previous leads; cited from earlier work.
For data set [3], the target named is T1, Recombinant M. tuberculosis MbtI. Kind of data set: MbtI enzymatic inhibition assay (fluorimetric, salicylic acid formation). The class given is biochemical. Particulars: for activity against MbtI (in words): discussion of Table 1. On the procedure:
Recombinant M. tuberculosis MbtI was produced and purified as previously reported. Enzyme activity was determined at 37 °C, measuring the formation of salicylic acid by a fluorimetric assay, slightly modified from Vasan et al.. Briefly, the reactions were performed in a final volume of 400 μL of 50 mM Hepes pH 7.5, 5 mM MgCl2, containing 1-2 μM MbtI, by the addition of chorismic acid, and monitored using a Perkin-Elmer LS3 fluorimeter (Ex. λ = 305 nm, Em. λ = 420 nm). Inhibition assays were performed in the presence of the compound at 100 µM (stock solution 20 mM in DMSO) and 50 µM chorismic acid. Where possible, compounds were tested both as free acids and sodium salts, providing analogous results. […] To this end, the activity was measured at different compound concentrations, and values were calculated according to Equation (1), with Origin 8 software:(1) A[I] = A[0] × (1 −[I]/[I] + IC50) where A[I] is the activity at inhibitor concentration [I] and A[0] is the activity in the absence of the inhibitor.
The Ki was determined at different substrate [S] and compound concentrations, using Equation (2):(2) v = Vmax[S]/[S] + Km (1 + [I]/Ki)

Data set [4] has as its system M. bovis BCG. Particulars: previous lead I given for comparison; cited from earlier work.
The subject of data set [5] is M. bovis BCG. Kind of data set: microbe, parasite or virus in culture. The class given is cell-based.
[6] abbreviates: Table 2, furans IV–IX, compound 100 µM, 50 µM chorismic acid, read-out: % RA (% residual enzymatic activity at 100 µM).
Where [7] appears, read: Table 2, furans IV–IX, only for compounds with %RA ≤ 25%, read-out: IC50.
The mark [8] stands for this setting: Series B R = p-NO2Ph, compound 100 µM, 50 µM chorismic acid, read-out: %RA (% residual enzymatic activity at 100 µM).
Setting [9] is: Series B R = p-NO2Ph, only for compounds with %RA ≤ 25%, read-out: IC50.
Setting [10] is: rounded value, read-out: IC50 against MbtI.
Setting [11] is: Series A R = m-CNPh, compound 100 µM, 50 µM chorismic acid, read-out: %RA (% residual enzymatic activity at 100 µM).
Setting [12] is: compound 100 µM, rounded value, read-out: % residual enzymatic activity (%RA) at 100 µM.
Where [13] appears, read: Series A R = m-CNPh, only for compounds with %RA ≤ 25%, read-out: IC50.

T1 sequence (P9WFX1 whole entry): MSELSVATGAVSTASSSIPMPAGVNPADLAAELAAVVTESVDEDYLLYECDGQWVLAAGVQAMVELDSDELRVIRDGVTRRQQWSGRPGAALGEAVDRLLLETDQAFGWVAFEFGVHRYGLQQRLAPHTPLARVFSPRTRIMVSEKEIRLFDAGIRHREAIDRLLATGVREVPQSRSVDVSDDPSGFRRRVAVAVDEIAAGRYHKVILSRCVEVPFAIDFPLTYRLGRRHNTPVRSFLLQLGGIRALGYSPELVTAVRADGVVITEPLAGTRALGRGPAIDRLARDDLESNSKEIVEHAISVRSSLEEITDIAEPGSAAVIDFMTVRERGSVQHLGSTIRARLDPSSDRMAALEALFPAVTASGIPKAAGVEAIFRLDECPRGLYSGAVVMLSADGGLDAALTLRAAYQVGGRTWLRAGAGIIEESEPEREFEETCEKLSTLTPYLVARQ

Take `O=C(O)c1ccc(-c2ccc([N+](=O)[O-])cc2)o1` [II]: in data set [1], the “%RA (% residual enzymatic activity at 100 µM)” value is 18.2 ± 5.1%. For the same compound, the “cytotoxicity towards eukaryotic cells (in words)” value in data set [2] was “negligible cytotoxicity”.
On to `N#Cc1cc(F)cc(-c2ccc(C(=O)O)o2)c1` [VI, 5-(3-cyano-5-fluorophenyl)furan-2-carboxylic acid], for which the remaining activity at 100 µM in data set [3] (setting [6]) worked out at 8.7 ± 1.4%. The IC50 (in general, the point on the concentration scale where inhibition reaches its midpoint) in data set [3] (setting [7]) amounted to 17.3 ± 3.1 µM.
On to `O=C(O)c1ncc(-c2ccc([N+](=O)[O-])cc2)[nH]1` [4b, 5-(4-Nitrophenyl)-1H-imidazole-2-carboxylic acid], for which the melting point (usually the temperature, or range, at which the solid turns liquid) stood at 137 °C. In addition, in data set [3] (setting [8]), the remaining activity at 100 µM was 18.2 ± 4.9%. Further, the IC50 in data set [3] (setting [9]) was determined as 27.5 ± 2.3 µM. Also, the “activity against MbtI (in words)” value in data set [3] is recorded as “weak activity”.
As to `O=C(O)c1cn(-c2ccc([N+](=O)[O-])cc2)nn1` [6b, 1-(4-Nitrophenyl)-1H-1,2,3-triazole-4-carboxylic acid], the melting point worked out at 175 °C. Besides, the remaining activity at 100 µM in data set [3] (setting [8]) was determined as 32.7 ± 7.8%.
For the compound `N#Cc1cc(O)cc(-c2ccc(C(=O)O)o2)c1` [IX, 5-(3-cyano-5-hydroxyphenyl)furan-2-carboxylic acid], the remaining activity at 100 µM in data set [3] (setting [6]) is 15.3 ± 2.6%. The IC50 is 33.5 ± 3.4 µM in data set [3] (setting [7]) and approximately 33 µM in data set [3] (setting [10]).
On to `O=C(O)c1ccc(-c2cc(C(F)(F)F)cc(C(F)(F)F)c2)o1` [V, 5-(3,5-Bis(trifluoromethyl)phenyl)furan-2-carboxylic acid], for which the remaining activity at 100 µM in data set [3] (setting [6]) worked out at 8.9 ± 1.6%. Also, the values for the IC50 in data set [3] (setting [7]) and in data set [3] (setting [10]) were 18.8 ± 6.8 µM and approximately 19 µM, respectively.
Consider `N#Cc1cccc(-c2cnc(C(=O)[O-])o2)c1.[Na+]` [3a, Sodium 5-(3-cyanophenyl)oxazole-2-carboxylate], for which the melting point was > 300 °C (dec.). In data set [3] (setting [11]), the remaining activity at 100 µM is 38 ± 7.6%. In addition, the “activity against MbtI (in words)” value in data set [3] is reported as “negligible activity”.
With `O=C(O)c1ccc(-c2ccc([N+](=O)[O-])cc2)s1` [1b, 5-(4-Nitrophenyl)thiophene-2-carboxylic acid], the melting point came out at 189 °C. Moreover, the remaining activity at 100 µM in data set [3] (setting [8]) amounted to 22.5 ± 10.8%. Further, in data set [3] (setting [9]), the IC50 was 18.6 ± 1.7 µM. For the same compound, the remaining activity at 100 µM in data set [3] (setting [12]) is approximately 23%.
With `N#Cc1cccc(-c2ccc(C(=O)O)s2)c1` [1a, 5-(3-Cyanophenyl)thiophene-2-carboxylic acid], the melting point is 207 °C. Also, in data set [3] (setting [11]), the remaining activity at 100 µM was 23.7 ± 5%. The IC50 in data set [3] (setting [13]) was determined as 35.5 ± 1.9 µM. The remaining activity at 100 µM in data set [3] (setting [12]) is approximately 23%.
For the compound `O=C([O-])c1ncc(-c2ccc([N+](=O)[O-])cc2)s1.[Na+]` [2b, Sodium 5-(4-nitrophenyl)thiazole-2-carboxylate], the melting point was > 300 °C (dec.). Besides, the remaining activity at 100 µM in data set [3] (setting [8]) came out at 32.8 ± 2.3%. Moreover, the “activity against MbtI (in words)” value in data set [3] is “weaker inhibitors”.
Regarding `O=C([O-])c1ncc(-c2ccc([N+](=O)[O-])cc2)o1.[Na+]` [3b, Sodium 5-(4-nitrophenyl)oxazole-2-carboxylate], the melting point is > 300 °C (dec.). For the same compound, in data set [3] (setting [8]), the remaining activity at 100 µM stood at 23 ± 7.8%. For the same compound, in data set [3] (setting [9]), the half-inhibitory concentration (IC50) stood at 21.1 ± 2.7 µM. Further, the “activity against MbtI (in words)” value in data set [3] is given as “modest activity”.
On to `O=C(O)c1ccc(-c2ccccc2)o1` [III], for which, in data set [1] (removal of the substituent from the phenyl ring), the “MbtI activity (in words)” value is recorded as “complete loss of activity”.
As for `COc1cc(C#N)cc(-c2ccc(C(=O)O)o2)c1` [VII, 5-(3-Cyano-5-methoxyphenyl)furan-2-carboxylic acid], the remaining activity at 100 µM in data set [3] (setting [6]) is 10.5 ± 3.9%. Besides, the IC50 in data set [3] (setting [7]) was 14.5 ± 2.1 µM. Besides, the “activity against MbtI (in words)” value in data set [3] is given as “comparable IC50 with respect to IV”.
`N#Cc1cccc(-c2nnc(C(=O)O)o2)c1` [5a, 5-(3-Cyanophenyl)-1,3,4-oxadiazole-2-carboxylic acid]: the melting point was 222 °C (dec.). Also, the remaining activity at 100 µM in data set [3] (setting [11]) is 75 ± 9.8%.
Turning to `N#Cc1cccc(-c2ccc(C(=O)O)o2)c1` [I], the MIC99 in data set [4] is 250 µM (≈ 53.3 µg/mL). The “%RA (% residual enzymatic activity at 100 µM)” value in data set [1] was 3.1 ± 1.0%. The “cytotoxicity towards eukaryotic cells (in words)” value in data set [2] is “negligible cytotoxicity”.
On to `N#Cc1cccc(-c2cnc(C(=O)O)[nH]2)c1` [4a, 5-(3-Cyanophenyl)-1H-imidazole-2-carboxylic acid], for which the melting point was determined as 165 °C. For the same compound, the remaining activity at 100 µM in data set [3] (setting [11]) stood at 21.2 ± 1%. In addition, in data set [3] (setting [13]), the 50% inhibitory concentration (IC50) is 39.3 ± 3 µM. Further, the “activity against MbtI (in words)” value in data set [3] was “weak activity”.
For the compound `Cc1cc(C#N)cc(-c2ccc(C(=O)O)o2)c1` [VIII, 5-(3-cyano-5-methylphenyl)furan-2-carboxylic acid], the remaining activity at 100 µM in data set [3] (setting [6]) is 16.7 ± 3.8%. For the same compound, the 50% inhibitory concentration (IC50) in data set [3] (setting [7]) is 29.1 ± 1.8 µM; in data set [3] (setting [10]) it was approximately 29 µM.
For the compound `N#Cc1cc(-c2ccc(C(=O)O)o2)cc(C(F)(F)F)c1` [IV, 5-(3-Cyano-5-(trifluoromethyl)phenyl)furan-2-carboxylic acid], the remaining activity at 100 µM in data set [3] (setting [6]) is 0.7 ± 2.7%; in data set [3] (read-out: % residual enzymatic activity (%RA) at 100 µM), approximately 1%. The IC50 in data set [3] (setting [7]) was 15.5 ± 3.1 µM; in data set [3] (setting [10]), approximately 15 µM. Also, in data set [3] (kinetic analysis at different chorismic acid and compound concentrations), the Ki – broadly, a measure of affinity in units of concentration, obtained from inhibition or displacement – was 9.2 µM and ~9 µM. Also, the “nature of inhibition against MbtI” value in data set [3] (steady-state kinetics towards chorismic acid) is given as “competitive inhibitor”. Also, the MIC99 in data set [5] (M. bovis BCG, iron-limiting conditions (chelated Sauton's medium), REMA) came out at 125 µM (≈ 35.1 µg/mL); in data set [5] (Mycobacterium tuberculosis variant bovis BCG, BCG), 125 µM (≈ 35.1 µg/mL).
For the compound `O=C(O)c1nnc(-c2ccc([N+](=O)[O-])cc2)o1` [5b, 5-(4-Nitrophenyl)-1,3,4-oxadiazole-2-carboxylic acid], the melting point was 220 °C (dec.). For the same compound, the remaining activity at 100 µM in data set [3] (setting [8]) turned out to be 59 ± 4.3%.
Consider `N#Cc1cc(C(F)(F)F)ccc1-c1ccc(C(=O)O)o1` [5-(2-cyano-4-(trifluoromethyl)phenyl)furan-2-carboxylic acid], for which the IC50 in data set [1] (previously published disubstituted furans, read-out: IC50 against MbtI) was approximately 18 µM.
On to `N#Cc1cccc(-n2cc(C(=O)O)nn2)c1` [6a, 1-(3-Cyanophenyl)-1H-1,2,3-triazole-4-carboxylic acid], for which, in data set [3] (setting [11]), the remaining activity at 100 µM is 67.9 ± 6.6%.
In the case of `N#Cc1cccc(-c2cnc(C(=O)[O-])s2)c1.[Na+]` [2a, Sodium 5-(3-cyanophenyl)thiazole-2-carboxylate], the melting point is > 300 °C (dec.). In addition, in data set [3] (setting [11]), the remaining activity at 100 µM turned out to be 24.8 ± 1.8%. For the same compound, the IC50 in data set [3] (setting [13]) amounted to 41.9 ± 7.3 µM. For the same compound, the “activity against MbtI (in words)” value in data set [3] was “weaker inhibitors”.
